One experiment relates to MCF7. Description: cells. As to conditions: Homo sapiens, MCF7, 72 h.
In a further experiment the test system is SGC-7901. Description: Antiproliferative activity against human SGC-7901 cells assessed as inhibition of cell growth incubated for 72 hrs by MTT assay. In kind it is functional, cell-based. The note with it: SGC-7901, 72 h.
A further experiment concerns Huh-7. Nature of the experiment: cells. As to conditions: Homo sapiens, Huh-7, 72 h.

Description for Huh-7: Antiproliferative activity against human Huh-7 cells assessed as inhibition of cell growth incubated for 72 hrs by MTT assay
Description for MCF7: Antiproliferative activity against human MCF7 cells assessed as inhibition of cell growth incubated for 72 hrs by MTT assay

On to `COc1ccc(-c2ccc3nccc(-c4cc(OC)c(OC)c(OC)c4)c3c2)cc1O`, for which the IC50 came out at 3.62 µM in the experiment with MCF7, 25.3 µM in the experiment with SGC-7901 and 0.12 µM with Huh-7.
For the compound `COc1cc(-c2ccnc3ccc(-c4ccc(F)cc4)cc23)cc(OC)c1OC`, the results for the IC50 in the experiment with MCF7, in the experiment on SGC-7901 and in the experiment on Huh-7 were 17.1 µM, 10.5 µM and 5.15 µM, respectively.
Regarding `COc1cc(-c2ccnc3ccc(-c4ccc([N+](=O)[O-])cc4)cc23)cc(OC)c1OC`, the IC50 with MCF7 is greater than 100 µM; with SGC-7901 it was 20.3 µM; in the experiment on Huh-7 it was 8.22 µM.
Regarding `COc1cc(-c2ccnc3ccc(-c4ccc(O)cc4)cc23)cc(OC)c1OC`, the IC50 in the experiment on MCF7 was greater than 100 µM; in the experiment with SGC-7901, 1.91 µM; with Huh-7, 0.32 µM.
For `COc1cc(-c2ccnc3ccc(-c4ccc(C#N)cc4)cc23)cc(OC)c1OC`, the 50% inhibitory concentration (IC50) in the experiment with MCF7 was greater than 100 µM; in the experiment with SGC-7901, 7.33 µM; in the experiment with Huh-7 it was 3.41 µM.
Consider `COc1cc(-c2ccnc3ccc(-c4cccnc4)cc23)cc(OC)c1OC`, for which the 50% inhibitory concentration (IC50) in the experiment with MCF7 came to 22.1 µM; in the experiment with SGC-7901, 9.11 µM; in the experiment with Huh-7 it was 4.58 µM.
As to `COc1cc(-c2ccnc3ccc(-c4ccccc4)cc23)cc(OC)c1OC`, the IC50 in the experiment with MCF7 came out at 1.43 µM; in the experiment on SGC-7901, 7.92 µM; in the experiment with Huh-7, 1.15 µM.
As for `COc1cc(-c2ccnc3ccc(-c4ccncc4)cc23)cc(OC)c1OC`, the results for the IC50 in the experiment with MCF7, in the experiment with SGC-7901 and in the experiment on Huh-7 were 44.5 µM, greater than 100 µM and greater than 100 µM, respectively.
Turning to `CCOc1ccc(-c2ccc3nccc(-c4cc(OC)c(OC)c(OC)c4)c3c2)cc1`, the IC50 with MCF7 was determined as 3.11 µM; in the experiment on SGC-7901, 3.87 µM; in the experiment with Huh-7 it was 0.42 µM.
In the case of `COc1cccc(-c2ccc3nccc(-c4cc(OC)c(OC)c(OC)c4)c3c2)c1`, the IC50 with MCF7 came to 17.5 µM; with SGC-7901, 7.83 µM; in the experiment on Huh-7, 3.36 µM.
`COc1cc(-c2ccnc3ccc(-c4ccc(C)cc4)cc23)cc(OC)c1OC`: the IC50 in the experiment on MCF7 came to 1.36 µM; in the experiment with SGC-7901, 0.6 µM; in the experiment on Huh-7 it was 1.15 µM.

For the origin of these results see ChEMBL document CHEMBL6127077, “Discovery and biological evaluation of 6-aryl-4-(3,4,5-trimethoxyphenyl)quinoline derivatives with promising antitumor activities as novel colchicine-binding site inhibitors” (Eur J Med Chem, 2024).
